Source: ChEMBL document CHEMBL3351580, “Pyrano-isochromanones as IL-6 inhibitors: synthesis, in vitro and in vivo antiarthritic activity” (J Med Chem, 2014)
Active and inactive are the calls of the source. No cut-off for these calls is given here.

Columns and labels:
Mus musculus [1] = experiment: Antiarthritic activity in DBA/1J mouse collagen-induced arthritis model assessed as reduction in anticollagen antibody IgG2a level at 5 mg/kg, po administered once daily for 49 days starting from onset of disease and measured after 49 days of disease onset by ELISA method; format: functional, organism-based; parameters: dose 5 mg/kg
Mus musculus [2] = experiment: Antiarthritic activity in DBA/1J mouse collagen-induced arthritis model assessed as reduction in anticollagen antibody IgG1 level at 5 mg/kg, po administered once daily for 49 days starting from onset of disease and measured after 49 days of disease onset by ELISA method; format: functional, organism-based; parameters: dose 5 mg/kg
[3] = Inhibition of concanavalin A-induced cell proliferation of T cells (unknown origin) at 10 uM after 72 hrs by MTT assay; format: functional
Mus musculus [4] = experiment: Antiarthritic activity in DBA/1J mouse collagen-induced arthritis model assessed as reduction in paw swelling at 5 mg/kg, po administered once daily for 49 days starting from onset of disease; format: functional; conditions: 1176 h
Mus musculus [5] = experiment: Antiarthritic activity in DBA/1J mouse collagen-induced arthritis model assessed as reduction in IL6 level at 5 mg/kg, po administered once daily for 49 days starting from onset of disease and measured after 3 to 49 days of disease onset by ELISA method; format: functional, organism-based; parameters: dose 5 mg/kg
Mus musculus [6] = experiment: Antiarthritic activity in DBA/1J mouse collagen-induced arthritis model assessed as reduction in anticollagen antibody IgG1 level at 5 mg/kg, po administered once daily for 49 days starting from onset of disease and measured after 14 days of disease onset by ELISA method; format: functional, organism-based; parameters: dose 5 mg/kg
THP-1 [7] = experiment: Inhibition of LPS-induced IL6 production in human THP1 cells after 24 hrs; format: functional, cell-based; conditions: THP-1, 24 h
Mus musculus [8] = experiment: Antiarthritic activity in DBA/1J mouse collagen-induced arthritis model assessed as reduction in TNFalpha level at 5 mg/kg, po administered once daily for 49 days starting from onset of disease and measured after 3 to 49 days of disease onset by ELISA method; format: functional, organism-based; parameters: dose 5 mg/kg
Mus musculus [9] = experiment: Antiarthritic activity in DBA/1J mouse collagen-induced arthritis model assessed as reduction in anticollagen antibody IgG2a level at 5 mg/kg, po administered once daily for 49 days starting from onset of disease and measured after 14 days of disease onset by ELISA method; format: functional, organism-based; parameters: dose 5 mg/kg
THP-1 [10] = experiment: Inhibition of LPS-induced TNFalpha production in human THP1 cells after 24 hrs; format: functional, cell-based; conditions: THP-1, 24 h
Mus musculus [11] = experiment: Antiarthritic activity in DBA/1J mouse collagen-induced arthritis model assessed as reduction in IL-1beta level at 5 mg/kg, po administered once daily for 49 days starting from onset of disease and measured after 3 to 49 days of disease onset by ELISA method; format: functional, organism-based; parameters: dose 5 mg/kg
B-cell = experiment: Inhibition of LPS-induced cell proliferation of B cells (unknown origin) at 10 uM after 72 hrs by MTT assay; format: functional
THP-1 [12] = experiment: Inhibition of NFkappaB p65/rel expression in human THP1 cells at 20 to 100 uM by Western blotting method; format: functional, cell-based
[13] = Therapeutic index, ratio of cytotoxic IC50 for human THP1 cells by MTT assay to IC50 for inhibition of LPS-induced IL6 production in human THP1 cells; format: cell-based, THP-1; conditions: read-out: Ratio IC50
Mus musculus [14] = experiment: Antiarthritic activity in BALB/c mouse assessed as reduction in SRBC-induced blood IFNgamma level administered orally once daily for 14 days measured 4 hrs post last dose by ELISA method; format: functional, organism-based
Mus musculus [15] = experiment: Antiinflammatory activity in BALB/c mouse assessed as serum TNFalpha level at 100 mg/kg, po qd for 5 days followed by LPS challenge 1 hr after last compound dose on fifth day and measured 4 hrs post LPS challenge by ELISA method (reference value: 717 +/- 218 pg/mL); format: functional
Mus musculus [16] = experiment: Antiarthritic activity in DBA/1J mouse collagen-induced arthritis model assessed as reduction in anticollagen antibody IgG2a level at 3 to 30 mg/kg, po administered once daily for 49 days starting from onset of disease and measured after 49 days of disease onset by ELISA method; format: functional, organism-based
THP-1 [17] = experiment: Inhibition of LPS-induced nitric oxide production in human THP1 cells at 10 uM after 24 hrs by Griess assay; format: functional; conditions: THP-1, 24 h
Mus musculus [18] = experiment: Antiinflammatory activity in BALB/c mouse assessed as serum IL6 level at 10 mg/kg, po qd for 5 days followed by LPS challenge 1 hr after last compound dose on fifth day and measured 4 hrs post LPS challenge by ELISA method (reference value: 410 +/- 95 pg/mL); format: functional
Mus musculus [19] = experiment: Antiinflammatory activity in BALB/c mouse assessed as serum nitric oxide level at 100 mg/kg, po qd for 5 days followed by LPS challenge 1 hr after last compound dose on fifth day and measured 4 hrs post LPS challenge by Griess assay (reference value: 6.95 +/- 1.81 uM); format: functional
THP-1 [20] = experiment: Cytotoxicity against human THP1 cells after 48 hrs by MTT assay; format: cell-based; conditions: THP-1, 48 h
Mus musculus [21] = experiment: Antiarthritic activity in DBA/1J mouse collagen-induced arthritis model assessed as reduction in anticollagen antibody IgG1 level at 3 to 30 mg/kg, po administered once daily for 49 days starting from onset of disease and measured after 49 days of disease onset by ELISA method; format: functional, organism-based
Mus musculus [22] = experiment: Antiarthritic activity in DBA/1J mouse collagen-induced arthritis model assessed as reduction in IL-1beta level at 3 to 30 mg/kg, po administered once daily for 49 days starting from onset of disease and measured after 3 to 49 days of disease onset by ELISA method; format: functional, organism-based
THP-1 [23] = experiment: Inhibition of LPS-induced IL-1beta production in human THP1 cells at 10 uM after 24 hrs; format: functional; conditions: THP-1, 24 h
Mus musculus [24] = experiment: Antiarthritic activity in BALB/c mouse assessed as reduction in SRBC-induced blood IL4 level administered orally once daily for 14 days measured 4 hrs post last dose by ELISA method; format: functional, organism-based
Mus musculus [25] = experiment: Antiarthritic activity in DBA/1J mouse collagen-induced arthritis model assessed as reduction in anticollagen antibody IgG2a level at 3 to 30 mg/kg, po administered once daily for 49 days starting from onset of disease and measured after 14 days of disease onset by ELISA method; format: functional, organism-based
[26] = molecular target: Inhibitor of NF-kappa-B kinase (IKK) (Homo sapiens) (UniProt O14920+O15111+Q9Y6K9); experiment: Inhibition of IKKbeta expression in human THP1 cells at 20 to 100 uM by Western blotting method; format: functional, cell-based; conditions: THP-1
Mus musculus [27] = experiment: Antiarthritic activity in DBA/1J mouse collagen-induced arthritis model assessed as reduction in anticollagen antibody IgG1 level at 3 to 30 mg/kg, po administered once daily for 49 days starting from onset of disease and measured after 14 days of disease onset by ELISA method; format: functional, organism-based
THP-1 [28] = experiment: Cytotoxicity against human THP1 cells after 24 hrs by MTT assay; format: cell-based; conditions: THP-1, 24 h
Mus musculus [29] = experiment: Antiinflammatory activity in BALB/c mouse assessed as serum TNFalpha level at 10 mg/kg, po qd for 5 days followed by LPS challenge 1 hr after last compound dose on fifth day and measured 4 hrs post LPS challenge by ELISA method (reference value: 717 +/- 218 pg/mL); format: functional
Mus musculus [30] = experiment: Antiarthritic activity in DBA/1J mouse collagen-induced arthritis model assessed as reduction in IL6 level at 3 to 30 mg/kg, po administered once daily for 49 days starting from onset of disease and measured after 3 to 49 days of disease onset by ELISA method; format: functional, organism-based
Mus musculus [31] = experiment: Antiarthritic activity in BALB/c mouse assessed as reduction in SRBC-induced blood IL2 level administered orally once daily for 14 days measured 4 hrs post last dose by ELISA method; format: functional, organism-based
Mus musculus [32] = experiment: Immunosuppressive activity in BALB/c mouse assessed as reduction in SRBC-induced humoral immunity by measuring IgG level at 3 to 30 mg/kg, po administered once daily for 14 days measured 4 hrs post last dose; format: functional, organism-based
[33] = Solubility in water; format: physicochemical
Mus musculus [34] = experiment: Immunosuppressive activity in BALB/c mouse assessed as reduction in SRBC-induced humoral immunity by measuring IgM level at 3 to 30 mg/kg, po administered once daily for 14 days measured 4 hrs post last dose; format: functional, organism-based
THP-1 [35] = experiment: Inhibition of NFkappaB expression in human THP1 cells up to 100 uM by Western blotting method; format: functional, cell-based
Mus musculus [36] = experiment: Immunosuppressive activity in BALB/c mouse assessed as reduction in SRBC-induced DTH response at 3 to 30 mg/kg, po administered once daily for 14 days measured 4 hrs post last dose; format: functional, organism-based
Mus musculus [37] = experiment: Antiinflammatory activity in BALB/c mouse assessed as serum nitric oxide level at 10 mg/kg, po qd for 5 days followed by LPS challenge 1 hr after last compound dose on fifth day and measured 4 hrs post LPS challenge by Griess assay (reference value: 6.95 +/- 1.81 uM); format: functional
Mus musculus [38] = experiment: Antiinflammatory activity in BALB/c mouse assessed as serum IL6 level at 100 mg/kg, po qd for 5 days followed by LPS challenge 1 hr after last compound dose on fifth day and measured 4 hrs post LPS challenge by ELISA method (reference value: 410 +/- 95 pg/mL); format: functional
Mus musculus [39] = experiment: Antiarthritic activity in DBA/1J mouse collagen-induced arthritis model assessed as reduction in TNFalpha level at 3 to 30 mg/kg, po administered once daily for 49 days starting from onset of disease and measured after 3 to 49 days of disease onset by ELISA method; format: functional, organism-based
Mus musculus [40] = experiment: Antiarthritic activity in DBA/1J mouse collagen-induced arthritis model assessed as reduction in paw swelling at 30 mg/kg, po administered once daily for 49 days starting from onset of disease; format: functional; conditions: 1176 h

C[C@H]1C[C@H]2[C@@H]3CCC4=CC(=O)C=C[C@]4(C)[C@@]3(F)[C@@H](O)C[C@]2(C)[C@@]1(O)C(=O)CO [BETAMETHASONE]
inhibition (Mus musculus [1]): Active | inhibition (Mus musculus [2]): Active | inhibition at 10 µM [3]: 42.6% | inhibition in vivo at 5 mg/kg (Mus musculus [4]): 46% | inhibition (Mus musculus [5]): Active | inhibition (Mus musculus [6]): Active | IC50 (THP-1 [7]): 0.022 µM | inhibition (Mus musculus [8]): Active | inhibition (Mus musculus [9]): Active | IC50 (THP-1 [10]): 0.013 µM | inhibition (Mus musculus [11]): Active | inhibition at 10 µM (B-cell): 28.1%

COc1c(O)cc2c(c1O)[C@@H]1O[C@H](CO)[C@@H](O)[C@H](O)[C@H]1OC2=O [BERGENIN]
inhibition (THP-1 [12]): Active | selectivity ratio [13]: > 400 | inhibition (Mus musculus [14]): Dose-dependent effect | Activity (Mus musculus [15]): 509 pg/mL | inhibition (Mus musculus [16]): Active | inhibition at 10 µM [3]: 54.8% | inhibition at 10 µM (THP-1 [17]): 39% | Activity (Mus musculus [18]): 282 pg/mL | Activity (Mus musculus [19]): 3.29 µM | IC50 (THP-1 [20]): 84 µM | inhibition (Mus musculus [21]): Active | inhibition (Mus musculus [22]): Active | inhibition at 10 µM (THP-1 [23]): 24% | inhibition (Mus musculus [24]): Dose-dependent effect | inhibition (Mus musculus [25]): Active | inhibition [26]: Active | inhibition (Mus musculus [27]): Active | IC50 (THP-1 [28]): 130 µM | Activity (Mus musculus [29]): 667 pg/mL | inhibition (Mus musculus [30]): Active | inhibition (Mus musculus [31]): Dose-dependent effect | IC50 (THP-1 [7]): 0.208 µM | inhibition (Mus musculus [32]): Active | IC50 (THP-1 [10]): 12.5 µM | solubility [33]: > 1500 µg/mL | inhibition (Mus musculus [34]): Active | inhibition (THP-1 [35]): inactive | inhibition at 10 µM (B-cell): 51.2% | inhibition (Mus musculus [36]): Active | Activity (Mus musculus [37]): 2.62 µM | Activity (Mus musculus [38]): 55 pg/mL | inhibition (Mus musculus [39]): Active | inhibition in vivo at 30 mg/kg (Mus musculus [40]): 32%
